Experimental data as given in patent US4366149A, “Antitumor anthracycline glycosides, their preparation, intermediates therefor, and compositions and use thereof” (priority 1980, dated 1982).
Values after ≈ are worked out from the molar mass of the structure shown. Where two headings read alike, the source gives them in different places.

Key:
[1] = tested on: HeLa cells; assay: HeLa cells cloning efficiency in vitro; assay type: cell-based; settings: for IC50: read-out: ID50 (HeLa cells cloning efficiency); for cytotoxicity on HeLa cells cloning efficiency, in words: in vitro, compared with daunorubicin
Method: Activity on HeLa cells cloning efficiency in vitro. Treatment for 24 hours

[2] = tested on: P388 ascitic leukemia; assay: Activity against P388 ascitic leukemia in mice; assay type: in vivo; settings: for activity against P388 leukemia, in words: preliminary test in mice
From the text: Activity against P388 ascitic leukemia. Treatment i.p. on day one after tumour inoculation.

[3] = 2.9 mg/kg i.p. on day one after tumour inoculation
[4] = 4.4 mg/kg i.p. on day one after tumour inoculation
[5] = 6.6 mg/kg i.p. on day one after tumour inoculation
[6] = Homo sapiens, HeLa, 24 h, read-out: % of controls (HeLa cells cloning efficiency)
[7] = 6 mg/kg i.p. on day one after tumour inoculation
[8] = 9 mg/kg i.p. on day one after tumour inoculation
[9] = 13.5 mg/kg i.p. on day one after tumour inoculation
[10] = 10 mg/kg i.p. on day one after tumour inoculation
[11] = 20 mg/kg i.p. on day one after tumour inoculation
[12] = 40 mg/kg i.p. on day one after tumour inoculation

What does the source list for `COc1cccc2c1C(=O)c1c(O)c3c(c(O)c1C2=O)C[C@@](O)(C(C)=O)C[C@@H]3O[C@H]1C[C@H](N)[C@H](O)[C@H](C)O1` [Daunorubicin, daunorubicin, reference compound]?
activity at 0.0031 µg/mL ([1]; Homo sapiens, HeLa, dose 3.1 ng/ml, treatment for 24 hours, data of 2 experiments, read-out: % of controls (HeLa cells cloning efficiency)): 88 to 98%; activity at 0.0062 µg/mL ([1]; Homo sapiens, HeLa, dose 6.2 ng/ml, treatment for 24 hours (daunorubicin: data of 2 experiments), read-out: % of controls (HeLa cells cloning efficiency)): 73 to 87%; IC50 ([1]; Homo sapiens, HeLa, treatment for 24 hours (daunorubicin: data of 2 experiments)): 0.012 µg/mL (≈ 0.0227 µM); T/C % [2, 3]: 181%; Toxicity Deaths [2, 3]: 0/10; T/C % [2, 4]: 140%; Toxicity Deaths [2, 4]: 9/10; T/C % [2, 5]: 118%; Toxicity Deaths [2, 5]: 10/10

`COc1cccc2c1C(=O)c1c(O)c3c(c(O)c1C2=O)C[C@@](O)(C(C)=O)C[C@@H]3O[C@H]1C[C@H](N)[C@H](N)[C@H](C)O1` [XOO-O132 (I-A), 4'-amino-4'-deoxy-daunorubicin] was tested. Which activity at 0.0062 µg/mL [1, 6] did it give?
The activity at 0.0062 µg/mL was 98%.

And the activity at 0.025 µg/mL [1, 6]?
The activity at 0.025 µg/mL was 70%.

What about the activity at 0.1 µg/mL [1, 6] of the same compound?
Its activity at 0.1 µg/mL is 0%.

What about the IC50 ([1]; Homo sapiens, HeLa, 24 h) of the same compound?
Its IC50 is 0.035 µg/mL (≈ 0.0665 µM).

And the “cytotoxicity on HeLa cells cloning efficiency, in words” value [1]?
The value was “less cytotxic than daunorubicin”.

What about the T/C % [2, 7] of the same compound?
The T/C % was 181%.

And the “Toxicity Deaths” value [2, 7]?
The value was 0/10.

What about the T/C % [2, 8] of the same compound?
Its T/C % is 190%.

What about the “Toxicity Deaths” value [2, 8] of the same compound?
Its value is 0/10.

And the T/C % [2, 9]?
The T/C % was 222%.

What about the “Toxicity Deaths” value [2, 9] of the same compound?
Its value is 0/10.

And the “activity at the maximal dose tested, in words” value ([2]; P388 leukemia in mice, 13.5 mg/kg)?
Its value is “highly active”.

And the “toxicity, in words” value ([2]; P388 leukemia in mice, compared with daunorubicin)?
Its value is “less toxic than daunorubicin”.

And the “activity against P388 leukemia, in words” value ([2]; compared with daunorubicin)?
The value was “much more active daunorubicin”.

How did the activity at 0.1 µg/mL [1, 6] turn out when `COc1cccc2c1C(=O)c1c(O)c3c(c(O)c1C2=O)C[C@@](O)(C(C)=O)C[C@@H]3O[C@H]1C[C@H](N)[C@@H](NC(=O)C(F)(F)F)[C@H](C)O1` [XOO-O136 (I-B), 4'-deoxy-4'-epi-trifluoroacetamido-daunorubicin] was run?
The activity at 0.1 µg/mL was 211%.

And the activity at 0.4 µg/mL [1, 6]?
Its activity at 0.4 µg/mL is 21%.

And the activity at 1.6 µg/mL [1, 6]?
The activity at 1.6 µg/mL was 0%.

What about the IC50 ([1]; Homo sapiens, HeLa, 24 h) of the same compound?
The IC50 was 0.18 µg/mL (≈ 0.289 µM).

And the “cytotoxicity on HeLa cells cloning efficiency, in words” value [1]?
The value was “less cytotxic than daunorubicin”.

And the T/C % [2, 10]?
Its T/C % is 145%.

And the “Toxicity Deaths” value [2, 10]?
The value was 0/10.

What about the T/C % [2, 11] of the same compound?
The T/C % was 154%.

And the “Toxicity Deaths” value [2, 11]?
Its value is 0/10.

What about the T/C % [2, 12] of the same compound?
The T/C % was 163%.

What about the “Toxicity Deaths” value [2, 12] of the same compound?
The value was 2/10.

What about the “activity against P388 leukemia, in words” value ([2]; compared with daunorubicin) of the same compound?
The value was “much more active daunorubicin”.
